For eight cell lines, relative viability results are on record in the supplement of paper PMC10307832.

Common to all, as to experiment: relative viability (nuclei count vs DMSO), 5 days (fraction); higher = more cells survive
Compound in the assay “Linifanib + Foretinib”: Cc1ccc(F)c(NC(=O)Nc2ccc(-c3cccc4[nH]nc(N)c34)cc2)c1 [Linifanib] + COc1cc2c(Oc3ccc(NC(=O)C4(C(=O)Nc5ccc(F)cc5)CC4)cc3F)ccnc2cc1OCCCN1CCOCC1 [Foretinib] (partner 0.25 µM)
Summed up:
(§1)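 Relative viability equals treated-well nuclei counts divided by vehicle-well nuclei counts. Counts came from 4× images of lung cancer cell lines grown in 1536-well plates for 5 days after pin-tool dosing on the day after seeding. Dosing used one drug alone or a fixed anchor-drug dose plus five library-drug doses (not always all listed) in √10 steps, and values are medians of duplicate plates.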

Compound in the assay “Linifanib + Pemetrexed”: Cc1ccc(F)c(NC(=O)Nc2ccc(-c3cccc4[nH]nc(N)c34)cc2)c1 [Linifanib] + Nc1nc2[nH]cc(CCc3ccc(C(=O)N[C@@H](CCC(=O)O)C(=O)O)cc3)c2c(=O)[nH]1 [Pemetrexed] (partner 0.2 µM)
Summed up: as §1

Compound in the assay “Linifanib + Navitoclax”: Cc1ccc(F)c(NC(=O)Nc2ccc(-c3cccc4[nH]nc(N)c34)cc2)c1 [Linifanib] + CC1(C)CCC(c2ccc(Cl)cc2)=C(CN2CCN(c3ccc(C(=O)NS(=O)(=O)c4ccc(N[C@H](CCN5CCOCC5)CSc5ccccc5)c(S(=O)(=O)C(F)(F)F)c4)cc3)CC2)C1 [Navitoclax] (partner 0.5 µM)
Summed up:
as §1

Compound in the assay “Linifanib + Dasatinib”: Cc1ccc(F)c(NC(=O)Nc2ccc(-c3cccc4[nH]nc(N)c34)cc2)c1 [Linifanib] + Cc1nc(Nc2ncc(C(=O)Nc3c(C)cccc3Cl)s2)cc(N2CCN(CCO)CC2)n1 [Dasatinib] (partner 0.075 µM)
Summed up:
as §1

Compound in the assay “Linifanib + Decitabine”: Cc1ccc(F)c(NC(=O)Nc2ccc(-c3cccc4[nH]nc(N)c34)cc2)c1 [Linifanib] + Nc1ncn([C@H]2C[C@H](O)[C@@H](CO)O2)c(=O)n1 [Decitabine] (partner 2 µM)
Summed up: as §1

Compound in the assay “Linifanib + Linsitinib”: Cc1ccc(F)c(NC(=O)Nc2ccc(-c3cccc4[nH]nc(N)c34)cc2)c1 [Linifanib] + C[C@]1(O)C[C@@H](c2nc(-c3ccc4ccc(-c5ccccc5)nc4c3)c3c(N)nccn32)C1 [Linsitinib] (partner 1 µM)
Summed up:
as §1

For the cell line PC-14, the relative viability with Linifanib + Foretinib (first compound 0.03162 µM) came to 0.976; in the assay with Linifanib + Foretinib (first compound 0.1 µM), 0.951; with Linifanib + Foretinib (first compound 0.3162 µM), 0.914; with Linifanib + Pemetrexed (first compound 0.03162 µM), 0.145; with Linifanib + Pemetrexed (first compound 0.1 µM), 0.137; with Linifanib + Pemetrexed (first compound 0.3162 µM) it was 0.129. The relative viability with Linifanib + Navitoclax (first compound 0.03162 µM) was 0.975; with Linifanib + Navitoclax (first compound 0.1 µM) it was 0.91; with Linifanib + Navitoclax (first compound 0.3162 µM), 0.947; with Linifanib + Dasatinib (first compound 0.03162 µM), 0.259; with Linifanib + Dasatinib (first compound 0.1 µM), 0.262; with Linifanib + Dasatinib (first compound 0.3162 µM), 0.266. In addition, the relative viability with Linifanib + Decitabine (first compound 0.03162 µM) was 0.231; with Linifanib + Decitabine (first compound 0.1 µM), 0.252; with Linifanib + Decitabine (first compound 0.3162 µM), 0.206; in the assay with Linifanib + Linsitinib (first compound 0.03162 µM), 1.01; with Linifanib + Linsitinib (first compound 0.1 µM), 1.07; with Linifanib + Linsitinib (first compound 0.3162 µM) it was 0.922.

On to EPLC-272H, for which the relative viability is 0.643 with Linifanib + Foretinib (first compound 0.03162 µM); 0.657 with Linifanib + Foretinib (first compound 0.1 µM); 0.556 in the assay with Linifanib + Foretinib (first compound 0.3162 µM); 0.332 with Linifanib + Pemetrexed (first compound 0.03162 µM); 0.358 with Linifanib + Pemetrexed (first compound 0.1 µM); 0.339 with Linifanib + Pemetrexed (first compound 0.3162 µM). Moreover, the relative viability is 1.09 in the assay with Linifanib + Navitoclax (first compound 0.03162 µM); 1.09 with Linifanib + Navitoclax (first compound 0.1 µM); 0.962 with Linifanib + Navitoclax (first compound 0.3162 µM); 0.324 with Linifanib + Dasatinib (first compound 0.03162 µM); 0.418 with Linifanib + Dasatinib (first compound 0.1 µM); 0.51 with Linifanib + Dasatinib (first compound 0.3162 µM). The relative viability with Linifanib + Decitabine (first compound 0.03162 µM) was determined as 0.352; in the assay with Linifanib + Decitabine (first compound 0.1 µM) it was 0.435; with Linifanib + Decitabine (first compound 0.3162 µM), 0.362; with Linifanib + Linsitinib (first compound 0.03162 µM), 1.04; in the assay with Linifanib + Linsitinib (first compound 0.1 µM) it was 1.2; in the assay with Linifanib + Linsitinib (first compound 0.3162 µM) it was 1.15.

In the case of HCC-15, the relative viability with Linifanib + Foretinib (first compound 0.03162 µM) was 1.01; with Linifanib + Foretinib (first compound 0.1 µM), 1.04; in the assay with Linifanib + Foretinib (first compound 0.3162 µM), 1.09; with Linifanib + Pemetrexed (first compound 0.03162 µM) it was 0.239; with Linifanib + Pemetrexed (first compound 0.1 µM), 0.229; in the assay with Linifanib + Pemetrexed (first compound 0.3162 µM), 0.232. For the same cell line, the relative viability in the assay with Linifanib + Navitoclax (first compound 0.03162 µM) is 0.651; with Linifanib + Navitoclax (first compound 0.1 µM) it was 0.776; in the assay with Linifanib + Navitoclax (first compound 0.3162 µM), 0.682; with Linifanib + Dasatinib (first compound 0.03162 µM) it was 0.635; in the assay with Linifanib + Dasatinib (first compound 0.1 µM), 0.709; in the assay with Linifanib + Dasatinib (first compound 0.3162 µM), 0.725. For the same cell line, the relative viability worked out at 0.745 with Linifanib + Decitabine (first compound 0.03162 µM); 0.693 with Linifanib + Decitabine (first compound 0.1 µM); 0.629 with Linifanib + Decitabine (first compound 0.3162 µM); 0.881 in the assay with Linifanib + Linsitinib (first compound 0.03162 µM); 0.89 with Linifanib + Linsitinib (first compound 0.1 µM); 0.817 with Linifanib + Linsitinib (first compound 0.3162 µM).

Turning to NCI-H1993, the relative viability with Linifanib + Foretinib (first compound 0.03162 µM) was found to be 0.807; with Linifanib + Foretinib (first compound 0.1 µM), 0.88; with Linifanib + Foretinib (first compound 0.3162 µM), 0.758; with Linifanib + Pemetrexed (first compound 0.03162 µM), 0.642; with Linifanib + Pemetrexed (first compound 0.1 µM), 0.627; with Linifanib + Pemetrexed (first compound 0.3162 µM), 0.637. In addition, the relative viability is 0.806 with Linifanib + Navitoclax (first compound 0.03162 µM); 1.01 with Linifanib + Navitoclax (first compound 0.1 µM); 0.971 with Linifanib + Navitoclax (first compound 0.3162 µM); 0.683 with Linifanib + Dasatinib (first compound 0.03162 µM); 0.551 with Linifanib + Dasatinib (first compound 0.1 µM); 0.681 in the assay with Linifanib + Dasatinib (first compound 0.3162 µM). The relative viability with Linifanib + Decitabine (first compound 0.03162 µM) is 0.631; with Linifanib + Decitabine (first compound 0.1 µM), 0.654; with Linifanib + Decitabine (first compound 0.3162 µM), 0.59; with Linifanib + Linsitinib (first compound 0.03162 µM), 0.749; in the assay with Linifanib + Linsitinib (first compound 0.1 µM) it was 0.691; in the assay with Linifanib + Linsitinib (first compound 0.3162 µM), 0.788.

In the case of NCI-H23, the relative viability with Linifanib + Foretinib (first compound 0.03162 µM) was 1.28; in the assay with Linifanib + Foretinib (first compound 0.1 µM), 0.964; with Linifanib + Foretinib (first compound 0.3162 µM), 1.15; with Linifanib + Pemetrexed (first compound 0.03162 µM) it was 0.66; with Linifanib + Pemetrexed (first compound 0.1 µM), 0.882; in the assay with Linifanib + Pemetrexed (first compound 0.3162 µM), 0.761. For the same cell line, the relative viability came to 0.98 in the assay with Linifanib + Navitoclax (first compound 0.03162 µM); 0.99 with Linifanib + Navitoclax (first compound 0.1 µM); 0.61 in the assay with Linifanib + Navitoclax (first compound 0.3162 µM); 0.736 with Linifanib + Dasatinib (first compound 0.03162 µM); 0.928 in the assay with Linifanib + Dasatinib (first compound 0.1 µM); 0.84 with Linifanib + Dasatinib (first compound 0.3162 µM). For the same cell line, the relative viability with Linifanib + Decitabine (first compound 0.03162 µM) stood at 0.355; in the assay with Linifanib + Decitabine (first compound 0.1 µM), 0.308; with Linifanib + Decitabine (first compound 0.3162 µM) it was 0.343; in the assay with Linifanib + Linsitinib (first compound 0.03162 µM), 0.536; with Linifanib + Linsitinib (first compound 0.1 µM) it was 0.798; in the assay with Linifanib + Linsitinib (first compound 0.3162 µM), 0.475.

Regarding SK-LU-1, the relative viability came to 0.805 with Linifanib + Foretinib (first compound 0.03162 µM); 0.816 with Linifanib + Foretinib (first compound 0.1 µM); 0.811 in the assay with Linifanib + Foretinib (first compound 0.3162 µM); 0.794 in the assay with Linifanib + Pemetrexed (first compound 0.03162 µM); 1 with Linifanib + Pemetrexed (first compound 0.1 µM); 0.966 with Linifanib + Pemetrexed (first compound 0.3162 µM). Besides, the relative viability was determined as 0.783 with Linifanib + Navitoclax (first compound 0.03162 µM); 0.893 with Linifanib + Navitoclax (first compound 0.1 µM); 0.791 with Linifanib + Navitoclax (first compound 0.3162 µM); 0.205 with Linifanib + Dasatinib (first compound 0.03162 µM); 0.196 in the assay with Linifanib + Dasatinib (first compound 0.1 µM); 0.193 with Linifanib + Dasatinib (first compound 0.3162 µM). Besides, the relative viability in the assay with Linifanib + Decitabine (first compound 0.03162 µM) came to 0.672; with Linifanib + Decitabine (first compound 0.1 µM), 0.645; with Linifanib + Decitabine (first compound 0.3162 µM), 0.669; with Linifanib + Linsitinib (first compound 0.03162 µM) it was 0.932; with Linifanib + Linsitinib (first compound 0.1 µM) it was 1.02; in the assay with Linifanib + Linsitinib (first compound 0.3162 µM), 0.981.

Consider NCI-H1437, for which the relative viability was found to be 1.27 with Linifanib + Foretinib (first compound 0.03162 µM); 1.25 with Linifanib + Foretinib (first compound 0.1 µM); 1.19 with Linifanib + Foretinib (first compound 0.3162 µM); 0.323 with Linifanib + Pemetrexed (first compound 0.03162 µM); 0.339 with Linifanib + Pemetrexed (first compound 0.1 µM); 0.286 in the assay with Linifanib + Pemetrexed (first compound 0.3162 µM). In addition, the relative viability came out at 1.1 with Linifanib + Navitoclax (first compound 0.03162 µM); 1.12 in the assay with Linifanib + Navitoclax (first compound 0.1 µM); 1.07 in the assay with Linifanib + Navitoclax (first compound 0.3162 µM); 0.375 with Linifanib + Dasatinib (first compound 0.03162 µM); 0.407 with Linifanib + Dasatinib (first compound 0.1 µM); 0.378 with Linifanib + Dasatinib (first compound 0.3162 µM). Besides, the relative viability with Linifanib + Decitabine (first compound 0.03162 µM) came out at 0.62; in the assay with Linifanib + Decitabine (first compound 0.1 µM), 0.573; in the assay with Linifanib + Decitabine (first compound 0.3162 µM) it was 0.571; with Linifanib + Linsitinib (first compound 0.03162 µM) it was 1.03; with Linifanib + Linsitinib (first compound 0.1 µM), 1.14; in the assay with Linifanib + Linsitinib (first compound 0.3162 µM), 0.814.

NCI-H3122: the relative viability with Linifanib + Foretinib (first compound 0.03162 µM) came out at 0.946; with Linifanib + Foretinib (first compound 0.1 µM), 0.965; with Linifanib + Foretinib (first compound 0.3162 µM), 0.932; with Linifanib + Pemetrexed (first compound 0.03162 µM) it was 0.203; with Linifanib + Pemetrexed (first compound 0.1 µM) it was 0.201; in the assay with Linifanib + Pemetrexed (first compound 0.3162 µM), 0.193. The relative viability with Linifanib + Navitoclax (first compound 0.03162 µM) is 1.02; with Linifanib + Navitoclax (first compound 0.1 µM), 1.04; in the assay with Linifanib + Navitoclax (first compound 0.3162 µM), 1.01; in the assay with Linifanib + Dasatinib (first compound 0.03162 µM) it was 0.908; in the assay with Linifanib + Dasatinib (first compound 0.1 µM), 0.908; with Linifanib + Dasatinib (first compound 0.3162 µM), 0.877. The relative viability with Linifanib + Decitabine (first compound 0.03162 µM) is 0.442; with Linifanib + Decitabine (first compound 0.1 µM), 0.418; with Linifanib + Decitabine (first compound 0.3162 µM), 0.487; in the assay with Linifanib + Linsitinib (first compound 0.03162 µM) it was 0.997; with Linifanib + Linsitinib (first compound 0.1 µM), 0.986; in the assay with Linifanib + Linsitinib (first compound 0.3162 µM), 1.04.
